Data published in US6770596B1, “Fused tricyclic compounds, process for their preparation, and herbicidal compositions containing them” (Ishihara Sangyo Kaisha Ltd., priority 2002, dated 2004).

How the values were obtained:
Assay type in all cases: in vivo
[1] = test system: green foxtail (Setaria viridis, SEV); assay: Post-emerge test, green foxtail; conditions: 250 g ai/ha, 14 days after application, rating scale 0-100 (0 no damage, 100 complete death)
Procedure, shortened: (§1)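 Greenhouse post-emergence spray onto plants at about the 2-3 leaf stage in sandy loam pots, compound in acetone at 187 l/ha plus 0.25% v/v non-ionic surfactant, 8-1000 g ai/ha by track sprayer. Phytotoxicity scored 14 days after application, 0 (no damage) to 100 (complete death).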

[2] = test system: sicklepod (Cassia obtusifolia, CAO); assay: Pre-emerge test, sicklepod; conditions: 250 g ai/ha, 14 days after application, rating scale 0-100 (0 no damage, 100 complete death)
Procedure, shortened: (§2)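 Using a track sprayer with flat fan nozzle, acetone solutions were applied at 8–1000 g ai/ha to sandy loam pots sown one day before. Plant injury was rated visually 0–100 after 14 days.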

[3] = test system: common ragweed (Ambrosia artemisiifolia L., AML); assay: Post-emerge test, common ragweed; conditions: 250 g ai/ha, 14 days after application, rating scale 0-100 (0 no damage, 100 complete death)
Procedure, shortened: as §1

[4] = test system: field corn (Zea mays L., var. Dekalb 535, CORN); assay: Post-emerge test, crop damage field corn; conditions: post-emerge, 250 g ai/ha, 14 days after application, rating scale 0-100 (0 no damage, 100 complete death)
Procedure, shortened: as §1

[5] = test system: field corn (Zea mays L., var. Dekalb 535, CORN); assay: Pre-emerge test, crop damage field corn; conditions: pre-emerge, 250 g ai/ha, 14 days after application, rating scale 0-100 (0 no damage, 100 complete death)
Procedure, shortened: (§3)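 Efficacy values are 0–100 phytotoxicity scores (0 no damage, 100 complete death) recorded 14 days post-application. Spray was delivered pre-emergence at 187 l/ha with rates of 8–1000 g ai/ha, using acetone as solvent.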

[6] = test system: green foxtail (Setaria viridis, SEV); assay: Pre-emerge test, green foxtail; conditions: 250 g ai/ha, 14 days after application, rating scale 0-100 (0 no damage, 100 complete death)
Procedure, shortened: as §2

[7] = test system: common ragweed (Ambrosia artemisiifolia L., AML); assay: Pre-emerge test, common ragweed; conditions: 250 g ai/ha, 14 days after application, rating scale 0-100 (0 no damage, 100 complete death)
Procedure, shortened: as §2

[8] = test system: lambsquarters (Chenopodium album, CHA); assay: Pre-emerge test, lambsquarters; conditions: 250 g ai/ha, 14 days after application, rating scale 0-100 (0 no damage, 100 complete death)
Procedure, shortened: as §2

[9] = test system: wheat (Triticum aestivum); assay: Pre-emerge test, crop damage wheat; conditions: pre-emerge, 250 g ai/ha, 14 days after application, rating scale 0-100 (0 no damage, 100 complete death)
Procedure, shortened: as §3

[10] = test system: ivyleaf morningglory (Ipomoea hederacea, IPH); assay: Post-emerge test, ivyleaf morningglory; conditions: 250 g ai/ha, 14 days after application, rating scale 0-100 (0 no damage, 100 complete death)
Procedure, shortened: as §1

[11] = test system: cocklebur (Xanthium strumariunt, XAS); assay: Post-emerge test, cocklebur; conditions: 250 g ai/ha, 14 days after application, rating scale 0-100 (0 no damage, 100 complete death)
Procedure, shortened: as §1

[12] = test system: soybean (Glycine max L., var. Pella 86, SOY); assay: Post-emerge test, crop damage soybean; conditions: post-emerge, 250 g ai/ha, 14 days after application, rating scale 0-100 (0 no damage, 100 complete death)
Procedure, shortened: as §1

[13] = test system: barnyardgrass (Echinachloa crus-galli, ECC); assay: Pre-emerge test, barnyardgrass; conditions: 250 g ai/ha, 14 days after application, rating scale 0-100 (0 no damage, 100 complete death)
Procedure, shortened: as §2

[14] = test system: velvetleaf (Abutilon theophrasti, ABT); assay: Post-emerge test, velvetleaf; conditions: 250 g ai/ha, 14 days after application, rating scale 0-100 (0 no damage, 100 complete death)
Procedure, shortened: as §1

[15] = test system: johnsongrass (Sorghum halepense, SOH); assay: Post-emerge test, johnsongrass; conditions: 250 g ai/ha, 14 days after application, rating scale 0-100 (0 no damage, 100 complete death)
Procedure, shortened: as §1

[16] = test system: velvetleaf (Abutilon theophrasti, ABT); assay: Pre-emerge test, velvetleaf; conditions: 250 g ai/ha, 14 days after application, rating scale 0-100 (0 no damage, 100 complete death)
Procedure, shortened: as §2

[17] = test system: soybean (Glycine max L., var. Pella 86, SOY); assay: Pre-emerge test, crop damage soybean; conditions: pre-emerge, 250 g ai/ha, 14 days after application, rating scale 0-100 (0 no damage, 100 complete death)
Procedure, shortened: as §3

[18] = test system: large crabgrass (Digitaria sanguinalis, DIS); assay: Pre-emerge test, large crabgrass; conditions: 250 g ai/ha, 14 days after application, rating scale 0-100 (0 no damage, 100 complete death)
Procedure, shortened: as §2

[19] = test system: upland rice (Oryza sp., var.Tebonnet, RICE); assay: Pre-emerge test, crop damage upland rice; conditions: pre-emerge, 250 g ai/ha, 14 days after application, rating scale 0-100 (0 no damage, 100 complete death)
Procedure, shortened: as §3

[20] = test system: johnsongrass (Sorghum halepense, SOH); assay: Pre-emerge test, johnsongrass; conditions: 250 g ai/ha, 14 days after application, rating scale 0-100 (0 no damage, 100 complete death)
Procedure, shortened: as §2

[21] = test system: cocklebur (Xanthium strumariunt, XAS); assay: Pre-emerge test, cocklebur; conditions: 250 g ai/ha, 14 days after application, rating scale 0-100 (0 no damage, 100 complete death)
Procedure, shortened: as §2

[22] = test system: lambsquarters (Chenopodium album, CHA); assay: Post-emerge test, lambsquarters; conditions: 250 g ai/ha, 14 days after application, rating scale 0-100 (0 no damage, 100 complete death)
Procedure, shortened: as §1

[23] = test system: redroot pigweed (Amaranthus retroflexus, AMR); assay: Post-emerge test, redroot pigweed; conditions: 250 g ai/ha, 14 days after application, rating scale 0-100 (0 no damage, 100 complete death)
Procedure, shortened: as §1

[24] = test system: upland rice (Oryza sp., var.Tebonnet, RICE); assay: Post-emerge test, crop damage upland rice; conditions: post-emerge, 250 g ai/ha, 14 days after application, rating scale 0-100 (0 no damage, 100 complete death)
Procedure, shortened: as §1

[25] = test system: ivyleaf morningglory (Ipomoea hederacea, IPH); assay: Pre-emerge test, ivyleaf morningglory; conditions: 250 g ai/ha, 14 days after application, rating scale 0-100 (0 no damage, 100 complete death)
Procedure, shortened: as §2

[26] = test system: wheat (Triticum aestivum); assay: Post-emerge test, crop damage wheat; conditions: post-emerge, 250 g ai/ha, 14 days after application, rating scale 0-100 (0 no damage, 100 complete death)
Procedure, shortened: as §1

[27] = test system: redroot pigweed (Amaranthus retroflexus, AMR); assay: Pre-emerge test, redroot pigweed; conditions: 250 g ai/ha, 14 days after application, rating scale 0-100 (0 no damage, 100 complete death)
Procedure, shortened: as §2

[28] = test system: sicklepod (Cassia obtusifolia, CAO); assay: Post-emerge test, sicklepod; conditions: 250 g ai/ha, 14 days after application, rating scale 0-100 (0 no damage, 100 complete death)
Procedure, shortened: as §1

[29] = test system: barnyardgrass (Echinachloa crus-galli, ECC); assay: Post-emerge test, barnyardgrass; conditions: 250 g ai/ha, 14 days after application, rating scale 0-100 (0 no damage, 100 complete death)
Procedure, shortened: as §1

[30] = test system: large crabgrass (Digitaria sanguinalis, DIS); assay: Post-emerge test, large crabgrass; conditions: 250 g ai/ha, 14 days after application, rating scale 0-100 (0 no damage, 100 complete death)
Procedure, shortened: as §1

Row | Structure (SMILES) | Post-emerge Herbicidal Activity SEV (phytotoxicity rating) [1] | Pre-emerge Herbicidal Activity CAO (phytotoxicity rating) [2] | Post-emerge Herbicidal Activity AML (phytotoxicity rating) [3] | Post-emerge crop damage CORN (phytotoxicity rating) [4] | Pre-emerge crop damage CORN (phytotoxicity rating) [5] | Pre-emerge Herbicidal Activity SEV (phytotoxicity rating) [6] | Pre-emerge Herbicidal Activity AML (phytotoxicity rating) [7] | Pre-emerge Herbicidal Activity CHA (phytotoxicity rating) [8] | Pre-emerge crop damage WHEAT (phytotoxicity rating) [9] | Post-emerge Herbicidal Activity IPH (phytotoxicity rating) [10] | Post-emerge Herbicidal Activity XAS (phytotoxicity rating) [11] | Post-emerge crop damage SOY (phytotoxicity rating) [12] | Pre-emerge Herbicidal Activity ECC (phytotoxicity rating) [13] | Post-emerge Herbicidal Activity ABT (phytotoxicity rating) [14] | Post-emerge Herbicidal Activity SOH (phytotoxicity rating) [15] | Pre-emerge Herbicidal Activity ABT (phytotoxicity rating) [16] | Pre-emerge crop damage SOY (phytotoxicity rating) [17] | Pre-emerge Herbicidal Activity DIS (phytotoxicity rating) [18] | Pre-emerge crop damage RICE (phytotoxicity rating) [19] | Pre-emerge Herbicidal Activity SOH (phytotoxicity rating) [20] | further results
1 | O=C1CN2C(=O)COc3cc(F)c(-c4ncc(C(F)(F)F)cc4Cl)c(c32)N1 [1-63] | 100 | 99 | 45 | 20 | 100 | 100 | 100 | 100 | 90 | 100 | 100 | 100 | 100 | 100 | 99 | 100 | 50 | 100 | 100 | 100 | Pre-emerge Herbicidal Activity XAS (phytotoxicity rating) [21]: 100; Post-emerge Herbicidal Activity CHA (phytotoxicity rating) [22]: 100; Post-emerge Herbicidal Activity AMR (phytotoxicity rating) [23]: 100; Post-emerge crop damage RICE (phytotoxicity rating) [24]: 75; Pre-emerge Herbicidal Activity IPH (phytotoxicity rating) [25]: 100; Post-emerge crop damage WHEAT (phytotoxicity rating) [26]: 30; Pre-emerge Herbicidal Activity AMR (phytotoxicity rating) [27]: 100; Post-emerge Herbicidal Activity CAO (phytotoxicity rating) [28]: 50; Post-emerge Herbicidal Activity ECC (phytotoxicity rating) [29]: 100; Post-emerge Herbicidal Activity DIS (phytotoxicity rating) [30]: 80
2 | CC1C(=O)Nc2c(-c3ncc(C(F)(F)F)cc3Cl)c(F)cc3c2N1C(=O)CO3 (stereo not drawn) [1-64] | 100 | 100 | 95 | 5 | 100 | 100 | 100 | 100 | 90 | 100 | 100 | 100 | 100 | 100 | 85 | 100 | 99 | 100 | 95 | 100 | Pre-emerge Herbicidal Activity XAS (phytotoxicity rating) [21]: 100; Post-emerge Herbicidal Activity CHA (phytotoxicity rating) [22]: 100; Post-emerge Herbicidal Activity AMR (phytotoxicity rating) [23]: 100; Post-emerge crop damage RICE (phytotoxicity rating) [24]: 0; Pre-emerge Herbicidal Activity IPH (phytotoxicity rating) [25]: 100; Post-emerge crop damage WHEAT (phytotoxicity rating) [26]: 15; Pre-emerge Herbicidal Activity AMR (phytotoxicity rating) [27]: 100; Post-emerge Herbicidal Activity CAO (phytotoxicity rating) [28]: 85; Post-emerge Herbicidal Activity ECC (phytotoxicity rating) [29]: 100; Post-emerge Herbicidal Activity DIS (phytotoxicity rating) [30]: 40
3 | CCC1C(=O)Nc2c(-c3ncc(C(F)(F)F)cc3Cl)c(F)cc3c2N1C(=O)CO3 (stereo not drawn) [1-66] | 98 | 98 | 80 | 10 | 95 | 100 | 100 | 100 | 50 | 100 | 100 | 100 | 100 | 100 | 75 | 100 | 35 | 100 | 85 | 100 | Pre-emerge Herbicidal Activity XAS (phytotoxicity rating) [21]: 50; Post-emerge Herbicidal Activity CHA (phytotoxicity rating) [22]: 100; Post-emerge Herbicidal Activity AMR (phytotoxicity rating) [23]: 100; Post-emerge crop damage RICE (phytotoxicity rating) [24]: 100; Pre-emerge Herbicidal Activity IPH (phytotoxicity rating) [25]: 100; Post-emerge crop damage WHEAT (phytotoxicity rating) [26]: 30; Pre-emerge Herbicidal Activity AMR (phytotoxicity rating) [27]: 100; Post-emerge Herbicidal Activity CAO (phytotoxicity rating) [28]: 75; Post-emerge Herbicidal Activity ECC (phytotoxicity rating) [29]: 100; Post-emerge Herbicidal Activity DIS (phytotoxicity rating) [30]: 95
